According to US8586505B2 (SDS Biotech K. K., priority 2009, dated 2013):

How the values were obtained:
Format in all cases: in vivo
Phytophthora infestans = assay: whole plant or invertebrate; conditions: in Solanum lycopersicum, 96 h, read-out: Determination of control effect (preventive value)
Sphaerotheca fuliginea = assay: Test of examining control effect on Sphaerotheca fuliginea (potted cucumber plants); conditions: Podosphaera fuliginea, 336 h; 10% wettable powder adjusted to 125 ppm, 15 ml/pot sprayed on potted cucumber plants one day before spray inoculation; assessed after 14 days in greenhouse; read-out: Determination of control effect (preventive value) on Sphaerotheca fuliginea
Description: (§1) Calculation of Preventive Value: Preventive value={(untreated lesion area rate−treated lesion area rate)/untreated lesion area rate}×100
(§2) Using the thus calculated preventive value, the control effect of each compound was determined in accordance with the following standards.
(§3) High control effect: 100%≧preventive value≧60%
(§4) Low control effect: 60%>preventive value≧0%
Using a spray gun, an agent solution prepared by adjusting a 10% wettable powder of each sample compound to 125 ppm (hereinafter referred to as a “sample agent solution”) was sprayed to potted cucumber plants (variety: Sagamihanjiro, 2nd leave stage) in a concentration of 15 ml/pot. One day after the spraying, a conidial suspension of Sphaerotheca fuliginea (conidial concentration: 1.0×10^5 cells/ml) was applied to the plants by spray inoculation. The plants were left in a greenhouse for 14 days, so that they were fully infected with the aforementioned disease. Thereafter, the disease level on each leaf was compared with that on an untreated leaf, and the control effect of each compound was determined in the same manner as in Example 3(1).

[1] = test system: Pseudoperonospora cubensis; assay: Test of examining control effect on Pseudoperonospora cubensis (potted cucumber plants); conditions: 96 h, 10% wettable powder adjusted to 125 ppm, 15 ml/pot sprayed on potted cucumber plants one day before spray inoculation, assessed after 1 day wet chamber and 3 days greenhouse, read-out: Determination of control effect (preventive value) on Pseudoperonospora cubensis
Description: as §1, §2, §3, §4
Using a spray gun, an agent solution prepared by adjusting a 10% wettable powder of each sample compound to 125 ppm (hereinafter referred to as a “sample agent solution”) was sprayed to potted cucumber plants (variety: Sagamihanjiro, 2.5 leave stage) in a concentration of 15 ml/pot. One day after the spraying, a conidial suspension of Pseudoperonospora cubensis (conidial concentration: 1.0×10^4 cells/ml) was applied to the plants by spray inoculation. After completion of the inoculation, the plants were left at 21° C. under wet chamber conditions for 1 day, and were then left in a greenhouse for 3 days, so that they were fully infected with the aforementioned disease. Thereafter, the disease level on each leaf was compared with that on an untreated leaf, and the control effect of each compound was determined in the same manner as in Example 3(1).

| Structure (SMILES) | pest or weed control at 125 ppm (Phytophthora infestans) [%] | pest or weed control at 125 µg/mL (Sphaerotheca fuliginea) [%] | pest or weed control at 125 µg/mL [1] [%] |
| --- | --- | --- | --- |
| COCc1ccccc1C#CCCNc1ncnc2ccc(-c3ccccc3)cc12 [compound 333] | 0 to 60 | 0 to 60 | 60 to 100 |
| COCc1ccccc1C#CCCNc1ncnc2cc(C(F)(F)F)ccc12 [compound 324] | 0 to 60 | 0 to 60 | 60 to 100 |
| O=Cc1nc(C#CCCNc2ncnc3sccc23)cs1 [compound 69] | 60 to 100 | 0 to 60 | 60 to 100 |
| CCOC(=O)C(CC#Cc1ccccc1C(F)(F)F)Nc1ncnc2ccccc12 (stereo not drawn) [compound 304] | 0 to 60 | 60 to 100 | 60 to 100 |
| COc1ccc(C#CCC(C)Nc2ncnc3ccccc23)c(C(F)(F)F)c1 (stereo not drawn) [compound 287] | 0 to 60 | 60 to 100 | 60 to 100 |
| C[Si](C)(C)C#CCCNc1ncnc2ccccc12 [compound 87] | 60 to 100 | 60 to 100 | 60 to 100 |
| CC(CC#Cc1ccc(Cl)cc1C(F)(F)F)Nc1ncnc(C(C)Cl)c1Cl (stereo not drawn) [compound 383] | 0 to 60 | 60 to 100 | 60 to 100 |
| COCc1ccccc1C#CCCNc1ncnc2ccc(OCC#Cc3ccccc3)cc12 [compound 339] | 0 to 60 | 0 to 60 | 60 to 100 |
| C(#Cc1csc(Cc2ccccc2)n1)CCNc1ncnc2sccc12 [compound 75, 4-[4-(2-Benzylthiazol-4-yl)-3-butynylamino]thieno[2,3-d]pyrimidine] | 60 to 100 | 60 to 100 | 60 to 100 |
| Fc1cccc(C#CCCNc2ncnc3sccc23)c1 [compound 12] | 0 to 60 | 60 to 100 | 60 to 100 |
| CC(C)(C)C#CCCNc1ncnc2sccc12 [compound 8] | 60 to 100 | 60 to 100 | 60 to 100 |
| COCc1cc(C)ccc1C#CCCNc1ncnc(C)c1Cl [compound 361] | 60 to 100 | 60 to 100 | 60 to 100 |
| CN(c1ccc(C#CCCNc2ncnc3ccccc23)cc1)S(C)(=O)=O [compound 124] | 0 to 60 | 0 to 60 | 60 to 100 |
| Cc1ccccc1C#CCCNc1ncnc2sccc12 [compound 17] | 60 to 100 | 60 to 100 | 60 to 100 |
| COC(C)c1ccccc1C#CCCNc1ncnc2ccccc12 (stereo not drawn) [compound 137] | 0 to 60 | 60 to 100 | 60 to 100 |
| FC(F)(F)c1ccccc1C#CCCNc1ncnc2ccccc12 [compound 101] | 60 to 100 | 60 to 100 | 60 to 100 |
| C(#Cc1ccc2ccccc2n1)CCNc1ncnc2ccccc12 [compound 188] | 0 to 60 | 0 to 60 | 60 to 100 |
| C(#Cc1cncc2ccccc12)CCNc1ncnc2ccccc12 [compound 192] | 0 to 60 | 0 to 60 | 60 to 100 |
| COCc1ccccc1C#CCCNc1ncnc(Cl)c1Br [compound 366] | 60 to 100 | 60 to 100 | 60 to 100 |
| C(#Cc1ccccc1-c1ccccc1)CCNc1ncnc2ccccc12 [compound 114] | 0 to 60 | 60 to 100 | 60 to 100 |
| FCc1ccccc1C#CCCNc1ncnc2ccccc12 [compound 99] | 60 to 100 | 60 to 100 | 60 to 100 |
| COCc1ccccc1C#CCCNc1ncnc2ccc(F)cc12 [compound 317] | 60 to 100 | 60 to 100 | 60 to 100 |
